# Measured values published in patent US12516285B2, “Small peptide MIPEP166I and use thereof in plant tissue culture” (Nanjing Forestry University, priority 2023, dated 2026).
# Marks after values point to notes of the source that are not given here.
# Tests used:
# Format in all cases: in vivo, 84K poplar (Populus alba×Populus tremula var. glandulosa)
# 84K poplar = experiment: Adventitious root formation and elongation in tissue culture on peptide-treated MS medium; conditions: 5 μM in MS medium, plants cultured for two weeks, n=15
# Protocol: (§1) The three synthetic peptides were each added to MS medium at a concentration of 5 μM as exogenous treatments, while sterile water was chosen as the blank control (CK) treatment (FIG. 1B).
# This may be due to the exogenous peptides acting as biological stimulants and osmotic agents, broadly inducing miRNA expression, with the lowest expression of miR166i observed in the CK samples.
# miR166i = experiment: RT-qPCR of miR166i in 84K poplar after exogenous peptide treatment
# Protocol: as §1
# (§2) To investigate the possible role of miPEP166i in its corresponding miRNA biogenesis, RT-qPCR was first used to analyze the abundance changes of pri-miR166i and miR166i in 84K poplar after 24 hours of exogenous treatment.
# (§3) During the process of adventitious root elongation, samples collected at 6, 9, and 12 days after cultivation (T1, T2, and T3 stages) were used to detect the expression of miR166i and its targets, aiming to explore the dynamic regulatory pattern of exogenous miPEP166i treatment (FIG. 3A). Due to the equivalence of NSP and IP treatments (FIG. 2G and FIG. 2H), only samples treated with CK, NSP, and miPEP, along with control samples, were used for quantitative miRNA expression and transcriptome sequencing analysis.
# [1] = system: Genes in Hormone Metabolism and Signaling Pathways; experiment: Time-course transcriptome (RNA-seq), hormone-related genes
# From the text: as §3
# (§4) RNA-seq libraries were constructed from the root systems of 84K poplar to investigate the effects of miPEP166i induction on miR166i targets.
# (§5) Using time-course transcriptome data from the root systems of 84K poplar, we explored the potential downstream gene expression responses induced by exogenous application of miPEP166i. By cross-comparing miPEP treatment with mock treatment and miPEP treatment with NSP treatment, we identified 114, 130, and 547 differentially expressed genes (DEGs) (|log2FC|>1 and FDR<0.05) at the T1, T2, and T3 stages, respectively. […] These genes are controlled by the master switches of HD-ZIP III transcription factors.
# Multiple intersections between hormone signaling and HD-ZIP III activity occur during root elongation. Numerous plant hormone-related genes were found within the DEG set, including genes related to auxin and cytokinin synthesis, (De)conjugation, transport, and signaling (Table 1).
# pri-miR166i = experiment: RT-qPCR of pri-miR166i in 84K poplar stem explants after exogenous peptide treatment; conditions: 5 μM in MS medium, 24 hours, vs control treatments
# Protocol: as §1, §2
# PagHB8 = experiment: Expression of miR166i target gene PagHB8 (RT-qPCR and RNA-seq)
# From the text: as §3, §4
# [2] = system: root systems of 84K poplar; experiment: Time-course transcriptome (RNA-seq), differentially expressed genes; conditions: for differentially expressed genes (DEGs): miPEP vs mock and vs NSP, |log2FC|>1 and FDR<0.05
# From the text: as §3, §4, §5
# PagREV = experiment: Expression of miR166i target gene PagREV (RT-qPCR and RNA-seq)
# From the text: as §3, §4
# [3] = T3 stage (12 DAC), miPEP vs NSP
# [4] = T1 stage (6 days after culture), P<0.05
# [5] = T2 and T3 stages (9 and 12 days after culture)
substance,measurement,setting,value
"IP: interference control peptide, same amino acids but different sequence, MSDFGGQPTLPFCLSSLNPKSTLK (SEQ ID NO.5)",length of adventitious roots,84K poplar,equivalence
same,number of adventitious roots,84K poplar,equivalence
same,expression of miR166i compared to NSP samples,"miR166i; 5 μM in MS medium, stem explants, 24 hours","slightly higher expression of miR166i was observed after IP treatment compared to its expression in NSP samples, the difference was not significant"
"NSP: non-specific control peptide of 15 amino acids, CLLNCPIYWQQLREX (SEQ ID NO.4)",length of adventitious roots,84K poplar,equivalence
same,number of adventitious roots,84K poplar,equivalence
"miPEP166i: small peptide encoded by pri-miRNA166i of 84K poplar, amino acid sequence SEQ ID NO.3 (MDGQTPCSLPSLSFGPLFLSNKTK; Populus alba x Populus tremula var. glandulosa)","FC_T1 miPEP/CK, ABCB9 (Pag_G_024492)","[1]; T1 stage (6 DAC), miPEP vs CK",−1.07*
same,"FC_T1 miPEP/CK, CKX3 (Pag_A_037490)","[1]; T1 stage (6 DAC), miPEP vs CK",4.85*
same,"FC_T1 miPEP/CK, GH3.10 (Pag_A_034334)","[1]; T1 stage (6 DAC), miPEP vs CK",−2.92*
same,"FC_T1 miPEP/CK, GH3.10 (Pag_G_015269)","[1]; T1 stage (6 DAC), miPEP vs CK",−1.67**
same,"FC_T1 miPEP/CK, GH3.10 (Pag_G_025244)","[1]; T1 stage (6 DAC), miPEP vs CK",−4.42*
same,"FC_T1 miPEP/CK, LOG5 (Pag_G_021773)","[1]; T1 stage (6 DAC), miPEP vs CK",−1.91*
same,"FC_T1 miPEP/NSP, ABCB9 (Pag_G_024492)","[1]; T1 stage (6 DAC), miPEP vs NSP",−0.72
same,"FC_T1 miPEP/NSP, CKX3 (Pag_A_037490)","[1]; T1 stage (6 DAC), miPEP vs NSP",2.61
same,"FC_T1 miPEP/NSP, GH3.10 (Pag_A_034334)","[1]; T1 stage (6 DAC), miPEP vs NSP",−2.2
same,"FC_T1 miPEP/NSP, GH3.10 (Pag_G_015269)","[1]; T1 stage (6 DAC), miPEP vs NSP",−1.21*
same,"FC_T1 miPEP/NSP, GH3.10 (Pag_G_025244)","[1]; T1 stage (6 DAC), miPEP vs NSP",−3.64
same,"FC_T1 miPEP/NSP, LOG5 (Pag_G_021773)","[1]; T1 stage (6 DAC), miPEP vs NSP",−2.14*
same,"FC_T2 miPEP/CK, CKI1 (Pag_A_024550)","[1]; T2 stage (9 DAC), miPEP vs CK",1.02**
same,"FC_T2 miPEP/CK, CKI1 (Pag_G_014127)","[1]; T2 stage (9 DAC), miPEP vs CK",0.93*
same,"FC_T2 miPEP/CK, CKX1 (Pag_G_016517)","[1]; T2 stage (9 DAC), miPEP vs CK",−1.17
same,"FC_T2 miPEP/CK, TAA1 (Pag_G_035628)","[1]; T2 stage (9 DAC), miPEP vs CK",0.74
same,"FC_T2 miPEP/CK, TAA1 (Pag_G_035629)","[1]; T2 stage (9 DAC), miPEP vs CK",0.78
same,"FC_T2 miPEP/NSP, CKI1 (Pag_A_024550)","[1]; T2 stage (9 DAC), miPEP vs NSP",1.11**
same,"FC_T2 miPEP/NSP, CKI1 (Pag_G_014127)","[1]; T2 stage (9 DAC), miPEP vs NSP",1.14**
same,"FC_T2 miPEP/NSP, CKX1 (Pag_G_016517)","[1]; T2 stage (9 DAC), miPEP vs NSP",−2.19*
same,"FC_T2 miPEP/NSP, TAA1 (Pag_G_035628)","[1]; T2 stage (9 DAC), miPEP vs NSP",1.72*
same,"FC_T2 miPEP/NSP, TAA1 (Pag_G_035629)","[1]; T2 stage (9 DAC), miPEP vs NSP",1.49**
same,"expression of genes encoding auxin transport proteins (PIN, ABCB, PIN-LIKES)",[1]; T3 stage,significantly increased
same,"FC_T3 miPEP/CK, ABCB8 (Pag_A_020924)","[1]; T3 stage (12 DAC), miPEP vs CK",−1.18**
same,"FC_T3 miPEP/CK, ABCB11 (Pag_A_005381)","[1]; T3 stage (12 DAC), miPEP vs CK",2.40**
same,"FC_T3 miPEP/CK, ABCB11 (Pag_A_010928)","[1]; T3 stage (12 DAC), miPEP vs CK",1.90**
same,"FC_T3 miPEP/CK, ABCB11 (Pag_G_007723)","[1]; T3 stage (12 DAC), miPEP vs CK",2.08**
same,"FC_T3 miPEP/CK, ABCB15 (Pag_A_017535)","[1]; T3 stage (12 DAC), miPEP vs CK",1.05**
same,"FC_T3 miPEP/CK, ABCB15 (Pag_G_028009)","[1]; T3 stage (12 DAC), miPEP vs CK",1.21**
same,"FC_T3 miPEP/CK, ABCB25 (Pag_A_009324)","[1]; T3 stage (12 DAC), miPEP vs CK",1.18
same,"FC_T3 miPEP/CK, ARF11 (Pag_G_003815)","[1]; T3 stage (12 DAC), miPEP vs CK",−1.75**
same,"FC_T3 miPEP/CK, IAA29 (Pag_G_007396)","[1]; T3 stage (12 DAC), miPEP vs CK",−0.94*
same,"FC_T3 miPEP/CK, LOG1 (Pag_A_016041)","[1]; T3 stage (12 DAC), miPEP vs CK",−2.72**
same,"FC_T3 miPEP/CK, LOG3 (Pag_G_010191)","[1]; T3 stage (12 DAC), miPEP vs CK",−1.55
same,"FC_T3 miPEP/CK, PILS3 (Pag_A_012930)","[1]; T3 stage (12 DAC), miPEP vs CK",4.74*
same,"FC_T3 miPEP/CK, PILS7 (Pag_G_005929)","[1]; T3 stage (12 DAC), miPEP vs CK",0.96**
same,"FC_T3 miPEP/CK, PIN7 (Pag_A_015236)","[1]; T3 stage (12 DAC), miPEP vs CK",1.33**
same,"FC_T3 miPEP/CK, PIN8 (Pag_A_008558)","[1]; T3 stage (12 DAC), miPEP vs CK",−1.07*
same,"FC_T3 miPEP/CK, PIN8 (Pag_G_019315)","[1]; T3 stage (12 DAC), miPEP vs CK",1.02**
same,"FC_T3 miPEP/NSP, ABCB8 (Pag_A_020924)",[1]; [3],−0.71
same,"FC_T3 miPEP/NSP, ABCB11 (Pag_A_005381)",[1]; [3],1.34**
same,"FC_T3 miPEP/NSP, ABCB11 (Pag_A_010928)",[1]; [3],1.13*
same,"FC_T3 miPEP/NSP, ABCB11 (Pag_G_007723)",[1]; [3],1.34*
same,"FC_T3 miPEP/NSP, ABCB15 (Pag_A_017535)",[1]; [3],1.11**
same,"FC_T3 miPEP/NSP, ABCB15 (Pag_G_028009)",[1]; [3],1.27**
same,"FC_T3 miPEP/NSP, ABCB25 (Pag_A_009324)",[1]; [3],3.26*
same,"FC_T3 miPEP/NSP, ARF11 (Pag_G_003815)",[1]; [3],−1.14*
same,"FC_T3 miPEP/NSP, IAA29 (Pag_G_007396)",[1]; [3],−1.21**
same,"FC_T3 miPEP/NSP, LOG1 (Pag_A_016041)",[1]; [3],−2.28*
same,"FC_T3 miPEP/NSP, LOG3 (Pag_G_010191)",[1]; [3],−1.86*
same,"FC_T3 miPEP/NSP, PILS3 (Pag_A_012930)",[1]; [3],−2.93
same,"FC_T3 miPEP/NSP, PILS7 (Pag_G_005929)",[1]; [3],1.03**
same,"FC_T3 miPEP/NSP, PIN7 (Pag_A_015236)",[1]; [3],1.08**
same,"FC_T3 miPEP/NSP, PIN8 (Pag_A_008558)",[1]; [3],−0.94
same,"FC_T3 miPEP/NSP, PIN8 (Pag_G_019315)",[1]; [3],1.16**
same,expression of PagCKI1 (cytokinin signaling),[1]; miPEP-treated samples,upregulated
same,expression of PagGH3 (auxin conjugation),[1]; miPEP-treated samples,downregulated
same,expression of auxin synthesis gene PagTAA1,[1]; miPEP-treated samples,significantly upregulated
same,expression of cytokinin synthesis gene PagLOG,[1]; miPEP-treated samples,significantly downregulated
same,expression of pri-miR166i,pri-miR166i,did not result in significant changes
same,length of adventitious roots,84K poplar,significant increase
same,number of adventitious roots,84K poplar,significant increase
same,expression of PagHB8,PagHB8; [4],significantly reduced
same,expression of PagHB8,PagHB8; [5],no significant reduction
same,expression of miR166i,"miR166i; 5 μM in MS medium, stem explants, 24 hours, vs the three control treatments",significantly enhanced
same,miR166i expression,"miR166i; T1, T2 and T3 stages (6, 9, 12 days after culture), vs CK and NSP",significant enhancement
same,differentially expressed genes (DEGs),[2]; T1 stage,114
same,differentially expressed genes (DEGs),[2]; T2 stage,130
same,differentially expressed genes (DEGs),[2]; T3 stage,547
same,downregulated genes,[2]; across all three stages,139
same,upregulated genes,[2]; across all three stages,552
same,"expression of genes involved in cellulose and lignin biosynthesis (PagCSLD4, PagCAD7, PagCOBL1, PagPAL2)","[2]; miPEP-treated samples, root transcriptome",upregulated
same,expression of PagREV,PagREV; [4],significantly reduced
same,expression of PagREV,PagREV; [5],no significant reduction
